From patent US8486947B2, “Treatment of Parkinson's disease, obstructive sleep apnea, dementia with Lewy bodies, vascular dementia with non-imidazole alkylamines histamine H3-receptor ligands” (Bioprojet, priority 2005, dated 2013)

Key:
[1] = test system: acetylcholine concentration in brain; assay: Rat brain microdialysis of acetylcholine, combination with acetylcholinesterase inhibitors; type: in vivo; details: rats, co-administered with donepezil, rivastigmine or gallanthamine
Protocol: (§1) Generally, dementia with Lewi bodies is treated with acetylcholinesterase inhibitors such as donepezil, rivastigmine or gallanthamine. These agents increase the acetylcholine concentration in the is brain extracellular space. Combinations of a compound of the invention and one of these agents were tested on rats. The drug was selected from donepezil, rivastigmine or gallanthamine and administered in combination with 3-(4-Chlorophenyl)propyl 3-piperidinopropyl ether in rats.

[2] = test system: MPTP-treated cats (experimentally induced parkinsonism); assay: Sleep-wakefulness patterns by electromyographic and EEG recordings in MPTP-treated parkinsonian cats; type: in vivo, cat; details: oral dose of 10 mg/kg
Protocol: As assessed by electromyographic and EEG recordings, treatment with BF 2.-649 (3-(4-Chlorophenyl)propyl 3-piperidinopropyl ether), a potent and selective H3-antagonist, at an oral dose of 10 mg/kg, normalized these sleep-wakefulness patterns.

rats = assay: Tolerability of the combinations with acetylcholinesterase inhibitors in rats; type: in vivo, rat; details: combination with donepezil, rivastigmine or gallanthamine
Protocol: as §1

[3] = test system: patients with a diagnostic of OSA; assay: Single-blind trial against placebo in male patients with obstructive sleep apnea, 3-day treatment; type: in vivo, human; details: 40 mg oral once a day, 3 days
Protocol: In a group of 10 male patients with a diagnostic of OSA, confirmed by polysomnography performed during a night in an hospital setting, an Epswoth score above 12 and a body mass index of less than 35, the effect of a 3-day treatment with BF 2.649 (3-(4-Chlorophenyl)propyl 3-piperidinopropyl ether) was assessed in a single-blind trial against placebo, at a fixed oral dose of 40 mg once a day.
In addition the nocturnal sleep duration was not decreased and its quality was improved. This clinical trial establishes for the first time the utility of H3 antagonists/inverse agonists in OSA.

[4] = test system: patients suffering from obstructive sleep apnea (OSA); assay: Two clinical studies (single-blinded or double-blinded against placebo, polysomnographical test) in OSA patients; type: in vivo, human; details: 40 mg p.o. once a day during 3 and 7 days
Protocol: Two clinical studies were conducted on patients suffering from obstructive sleep apnea (OSA), in a single-blinded or double-blinded trial against placebo with a polysomnographical test on patients.
In both studies, patients were administered with 3-(4-Chlorophenyl)propyl 3-piperidinopropyl ether at 40 mg p.o. once a day during 3 and 7 days.
In both studies, daytime sleepiness was improved in accordance with the Epworth test or according to the frequency of naps or daytime sleepiness occurrences. The average daytime sleepiness could be reduced by up to 50%.

[5] = test system: rats suffering from Parkinson; assay: Combination with an anti-parkinson drug in rats; type: in vivo, rat
Protocol: (§2) Combinations of a compound of the invention and a anti-parkinson drug were tested on rats and humans suffering from Parkinson.

[6] = test system: humans suffering from Parkinson; assay: Combination with an anti-parkinson drug in humans suffering from Parkinson; type: in vivo, human; details: 40 mg p.o.
Protocol: as §2

histamine H3-receptor = details: literature reports; cited from earlier work
PD patients = details: cited from earlier work
[7] = test system: Parkinsonian rat (unilateral 6-hydroxydopamine); details: 6-hydroxydopamine rat, co-administered with levodopa; cited from earlier work
[8] = combination with anti-parkinson drug
[9] = combination with ropinirole, lisuride, bromocriptine, levodopa or pramiprexole

With `Clc1ccc(CCCOCCCN2CCCCC2)cc1` [BF 2.649, 3-(4-Chlorophenyl)propyl 3-piperidinopropyl ether] the “increase of the acetylcholine concentration in brain (microdialysis)” value [1] was “potentialised”, the “long periods of sleep (model of excessive daytime sleepiness)” value [2] was “largely suppressed” and the sleep-wakefulness patterns ([2]; EMG and EEG recordings) was “normalized”. For the same molecule, the “tolerability, in particular cardiovascular parameters” value (rats) was “well tolerated”, the nocturnal sleep duration [3] was “not decreased” and the nocturnal sleep quality [3] was “improved”. The “occurrence of diurnal sleep episodes” value [3] was “total prevention”, the “decrease in the number of diurnal somnolence episodes” value ([3]; all subjects) was “more than 60%” and the “daytime sleepiness (Epworth test, frequency of naps or daytime sleepiness occurrences)” value [4] was “improved”. The “reduction of average daytime sleepiness” value [4] was “up to 50%”, the “dose of the anti-parkinson drug needed” value [5, 8] was “allowed lower doses” and the motor symptoms [5, 9] was “significantly improved”. The “dose of the anti-parkinson drug needed” value [6, 8] was “allowed lower doses” and the motor symptoms [6, 9] was “significantly improved”.
In the case of `CNCCc1ccccn1` [betahistine], the H3-receptor antagonism potency (histamine H3-receptor) is given as “very low potency”.
For `CN(C)CCCSC(=N)N` [dimaprit], the H3-receptor antagonism potency (histamine H3-receptor) is given as “very low potency”.
In the case of `NC(=O)C[S+]([O-])C(c1ccccc1)c1ccccc1` (stereo not shown) [modafinil], the “treatment of excessive daytime sleepiness” value (PD patients) is listed as “limited success”.
In the case of `c1ccc(C2(N3CCCCC3)CCCCC2)cc1` [phencyclidine], the H3-receptor antagonism potency (histamine H3-receptor) is listed as “very low potency”.
For `S=C(NC1CCCCC1)N1CCC(c2cnc[nH]2)CC1` [thioperamide], the “effect of levodopa on turning behaviour upon co-administration” value [7] is given as “not modified”.
